# Measurements: US20240245770A1, “COMPOSITIONS AND METHODS FOR TREATING NEUROMUSCULAR DISORDERS” (The Regents of the University of California, priority 2019, published 2024)
# Assays:
# [1] = tested on: Oral squamous carcinoma cells (OSCCs) and Oral squamous stem cell carcinoma (OSCSCs); assay: NAC blocking of CDDP mediated cell death (PI staining, flow cytometry); format: cell-based, human; details: OSCC compared with OSCSCs, 24 hours
# Protocol: Testing and selection of the best NAC to be used in ALS treatment. […] Afterwards OSCCs and OSCSCs were detached, and the viability of cells was determined after PI staining followed by flow cytometric analysis. In this figure Forward and Side Scatters (Fs/ss) were assessed since decrease in the Fs/ss is seen in cells undergoing cell death.
# Testing and selection of the best NAC to be used in ALS treatment. […] Afterwards OSCCs and OSCSCs were detached, and the viability of cells was determined after PI staining followed by flow cytometric analysis. In this figure the percentage of PI stained cells were assessed.
# [2] = tested on: Dental Pulp Stromal Cells (DPSCs); assay: NAC blocking of H2O2 mediated cell death in DPSCs; format: cell-based, human; details: NAC 20 mM, 24 hours, FIG. 67
# Protocol: Testing and selection of the best NAC to be used in ALS treatment. […] Afterwards DPSCs were detached, and the viability of cells was determined after PI staining followed by flow cytometric analysis. In this figure the decrease in FS/ss and the percentage of PI stained cells were assessed.
# OSCSCs = assay: NAC blocking of H2O2 mediated cell death in OSCSCs; format: cell-based, human; details: NAC 20 mM, 24 hours, FIG. 68
# ALS = details: cited from earlier work
compound,measurement,setting,value
"[NH2][Pt]([NH2])([Cl])[Cl] [CDDP, Cisplatin]",cell death induced by CDDP,[1],induces more of the cell death in OSCC than in OSCSCs
CC(=O)N[C@@H](CS)C(=O)O [NAC-M],H2O2 mediated cell death (Fs/ss and PI positive cells),[2],able to inhibit H2O2 mediated cell death effectively
same,H2O2 mediated cell death (Fs/ss and PI positive cells),OSCSCs,able to inhibit H2O2 mediated cell death effectively
Nc1nc2ccc(OC(F)(F)F)cc2s1 [Riluzole],extension of life,ALS,about two to three
